# From publication PMC4790320, “Purification of a Multidrug Resistance Transporter for Crystallization Studies” (Antibiotics, 2015)
# Target: T1, MdtM (Escherichia coli, UniProt P39386)
# T1 construct: full ORF in modified pBAD/Myc-His A, decaHis tag removed with thrombin; expressed in E. coli LMG194; IMAC with ATP wash to remove chaperonin, SEC in DDM; ~45 kDa; monomer
# Test: intrinsic tryptophan fluorescence quenching
# Format: binding
# T1 sequence (P39386 whole entry): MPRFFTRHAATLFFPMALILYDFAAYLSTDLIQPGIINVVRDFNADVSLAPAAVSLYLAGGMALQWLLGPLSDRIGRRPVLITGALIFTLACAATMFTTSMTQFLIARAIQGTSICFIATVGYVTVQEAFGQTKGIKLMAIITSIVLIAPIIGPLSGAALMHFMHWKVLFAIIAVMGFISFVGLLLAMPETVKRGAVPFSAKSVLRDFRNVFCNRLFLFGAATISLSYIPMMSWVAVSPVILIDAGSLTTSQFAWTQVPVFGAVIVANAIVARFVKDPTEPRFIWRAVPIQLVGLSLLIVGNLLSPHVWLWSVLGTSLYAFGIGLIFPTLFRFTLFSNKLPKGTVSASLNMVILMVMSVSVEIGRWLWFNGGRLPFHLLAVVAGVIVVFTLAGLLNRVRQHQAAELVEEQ
smiles,measurement,value
O=C(N[C@H](CO)[C@H](O)c1ccc([N+](=O)[O-])cc1)C(Cl)Cl [chloramphenicol],Kd,36 ± 3 nM
